Molecules are shown by their SMILES. Like-named read-outs stand apart in the source and are kept apart here. Positions of bridges follow the written chain, without caps; N, C: chain ends. Non-standard residues stand in square brackets, D forms with d. Residues, ends and D or L forms follow the SMILES beside them. Nva = CCC[C@H](N)C(=O)O; Abu = CC[C@H](N)C(=O)O

Common to all, as to experiment: cell-based
For one experiment, the target named is hNav1.3 (Homo sapiens, UniProt Q9NY46). The conditions noted are these: for IC50: IonWorks Quattro, read-out: IWQ Use Nav1.3.
A further experiment has as its target hNav1.4 (Homo sapiens, UniProt P35499). The conditions noted are these: IonWorks Quattro, read-out: IWQ Use Nav1.4.
For a further experiment, the target named is hNav1.7 (Homo sapiens, UniProt Q15858). In kind it is cell-based. The conditions noted are these: for IC50: IonWorks Quattro, read-out: IWQ Use Nav1.7.
hNav1.7, sequence (Q15858 whole entry, looked up): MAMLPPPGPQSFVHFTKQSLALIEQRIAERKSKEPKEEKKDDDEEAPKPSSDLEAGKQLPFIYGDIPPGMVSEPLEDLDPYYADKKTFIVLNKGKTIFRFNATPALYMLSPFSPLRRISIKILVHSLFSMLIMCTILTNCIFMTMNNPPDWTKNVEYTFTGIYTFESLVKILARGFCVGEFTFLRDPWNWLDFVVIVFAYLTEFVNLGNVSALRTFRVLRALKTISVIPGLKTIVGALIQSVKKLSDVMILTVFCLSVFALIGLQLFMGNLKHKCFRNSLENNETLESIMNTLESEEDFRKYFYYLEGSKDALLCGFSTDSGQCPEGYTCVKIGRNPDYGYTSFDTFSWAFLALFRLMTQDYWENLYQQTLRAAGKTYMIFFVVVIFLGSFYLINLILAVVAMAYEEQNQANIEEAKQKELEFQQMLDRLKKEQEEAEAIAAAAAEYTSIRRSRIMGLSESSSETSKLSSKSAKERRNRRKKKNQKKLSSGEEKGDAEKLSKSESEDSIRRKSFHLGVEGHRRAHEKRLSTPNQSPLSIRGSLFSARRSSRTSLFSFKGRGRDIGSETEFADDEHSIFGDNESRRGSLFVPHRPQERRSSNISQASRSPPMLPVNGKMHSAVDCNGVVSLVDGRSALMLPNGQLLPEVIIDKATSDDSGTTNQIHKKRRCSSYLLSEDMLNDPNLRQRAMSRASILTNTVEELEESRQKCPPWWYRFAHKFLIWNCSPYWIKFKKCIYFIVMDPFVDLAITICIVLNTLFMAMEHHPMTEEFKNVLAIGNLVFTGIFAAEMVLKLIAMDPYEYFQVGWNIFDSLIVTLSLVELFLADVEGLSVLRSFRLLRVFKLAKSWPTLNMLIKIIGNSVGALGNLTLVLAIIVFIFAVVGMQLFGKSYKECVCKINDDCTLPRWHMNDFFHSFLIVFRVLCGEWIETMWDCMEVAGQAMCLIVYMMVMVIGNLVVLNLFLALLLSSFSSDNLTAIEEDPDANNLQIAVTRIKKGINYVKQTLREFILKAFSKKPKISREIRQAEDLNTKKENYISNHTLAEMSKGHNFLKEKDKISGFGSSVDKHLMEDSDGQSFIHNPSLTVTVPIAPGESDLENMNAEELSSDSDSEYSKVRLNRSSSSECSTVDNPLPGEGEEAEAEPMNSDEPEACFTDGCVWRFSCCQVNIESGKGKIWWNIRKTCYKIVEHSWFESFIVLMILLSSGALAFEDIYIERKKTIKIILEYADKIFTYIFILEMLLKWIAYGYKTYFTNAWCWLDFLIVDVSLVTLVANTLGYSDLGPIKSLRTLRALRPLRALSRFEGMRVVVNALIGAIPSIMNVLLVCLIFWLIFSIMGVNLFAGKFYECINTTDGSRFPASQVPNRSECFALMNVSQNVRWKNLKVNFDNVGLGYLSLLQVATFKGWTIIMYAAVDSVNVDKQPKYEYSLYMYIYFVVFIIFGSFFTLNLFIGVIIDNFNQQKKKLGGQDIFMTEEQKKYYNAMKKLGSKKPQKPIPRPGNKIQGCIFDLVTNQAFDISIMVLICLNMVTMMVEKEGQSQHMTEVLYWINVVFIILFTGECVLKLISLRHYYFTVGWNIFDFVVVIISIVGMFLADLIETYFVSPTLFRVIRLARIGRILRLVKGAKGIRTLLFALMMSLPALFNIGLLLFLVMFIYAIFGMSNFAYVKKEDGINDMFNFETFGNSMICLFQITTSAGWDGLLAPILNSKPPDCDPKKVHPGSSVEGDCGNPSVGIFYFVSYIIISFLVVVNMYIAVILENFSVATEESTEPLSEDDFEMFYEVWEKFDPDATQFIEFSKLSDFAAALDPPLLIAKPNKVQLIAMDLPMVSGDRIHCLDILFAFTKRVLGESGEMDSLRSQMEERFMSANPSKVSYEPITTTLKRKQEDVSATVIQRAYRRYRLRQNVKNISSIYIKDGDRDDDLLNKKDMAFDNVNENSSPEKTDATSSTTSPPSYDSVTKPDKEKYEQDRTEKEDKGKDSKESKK
The target in the next experiment is hNav1.5 (Homo sapiens, UniProt Q14524). The conditions noted are these: IonWorks Quattro, read-out: IWQ Use Nav1.5.
hNav1.5, sequence (Q14524 whole entry, looked up): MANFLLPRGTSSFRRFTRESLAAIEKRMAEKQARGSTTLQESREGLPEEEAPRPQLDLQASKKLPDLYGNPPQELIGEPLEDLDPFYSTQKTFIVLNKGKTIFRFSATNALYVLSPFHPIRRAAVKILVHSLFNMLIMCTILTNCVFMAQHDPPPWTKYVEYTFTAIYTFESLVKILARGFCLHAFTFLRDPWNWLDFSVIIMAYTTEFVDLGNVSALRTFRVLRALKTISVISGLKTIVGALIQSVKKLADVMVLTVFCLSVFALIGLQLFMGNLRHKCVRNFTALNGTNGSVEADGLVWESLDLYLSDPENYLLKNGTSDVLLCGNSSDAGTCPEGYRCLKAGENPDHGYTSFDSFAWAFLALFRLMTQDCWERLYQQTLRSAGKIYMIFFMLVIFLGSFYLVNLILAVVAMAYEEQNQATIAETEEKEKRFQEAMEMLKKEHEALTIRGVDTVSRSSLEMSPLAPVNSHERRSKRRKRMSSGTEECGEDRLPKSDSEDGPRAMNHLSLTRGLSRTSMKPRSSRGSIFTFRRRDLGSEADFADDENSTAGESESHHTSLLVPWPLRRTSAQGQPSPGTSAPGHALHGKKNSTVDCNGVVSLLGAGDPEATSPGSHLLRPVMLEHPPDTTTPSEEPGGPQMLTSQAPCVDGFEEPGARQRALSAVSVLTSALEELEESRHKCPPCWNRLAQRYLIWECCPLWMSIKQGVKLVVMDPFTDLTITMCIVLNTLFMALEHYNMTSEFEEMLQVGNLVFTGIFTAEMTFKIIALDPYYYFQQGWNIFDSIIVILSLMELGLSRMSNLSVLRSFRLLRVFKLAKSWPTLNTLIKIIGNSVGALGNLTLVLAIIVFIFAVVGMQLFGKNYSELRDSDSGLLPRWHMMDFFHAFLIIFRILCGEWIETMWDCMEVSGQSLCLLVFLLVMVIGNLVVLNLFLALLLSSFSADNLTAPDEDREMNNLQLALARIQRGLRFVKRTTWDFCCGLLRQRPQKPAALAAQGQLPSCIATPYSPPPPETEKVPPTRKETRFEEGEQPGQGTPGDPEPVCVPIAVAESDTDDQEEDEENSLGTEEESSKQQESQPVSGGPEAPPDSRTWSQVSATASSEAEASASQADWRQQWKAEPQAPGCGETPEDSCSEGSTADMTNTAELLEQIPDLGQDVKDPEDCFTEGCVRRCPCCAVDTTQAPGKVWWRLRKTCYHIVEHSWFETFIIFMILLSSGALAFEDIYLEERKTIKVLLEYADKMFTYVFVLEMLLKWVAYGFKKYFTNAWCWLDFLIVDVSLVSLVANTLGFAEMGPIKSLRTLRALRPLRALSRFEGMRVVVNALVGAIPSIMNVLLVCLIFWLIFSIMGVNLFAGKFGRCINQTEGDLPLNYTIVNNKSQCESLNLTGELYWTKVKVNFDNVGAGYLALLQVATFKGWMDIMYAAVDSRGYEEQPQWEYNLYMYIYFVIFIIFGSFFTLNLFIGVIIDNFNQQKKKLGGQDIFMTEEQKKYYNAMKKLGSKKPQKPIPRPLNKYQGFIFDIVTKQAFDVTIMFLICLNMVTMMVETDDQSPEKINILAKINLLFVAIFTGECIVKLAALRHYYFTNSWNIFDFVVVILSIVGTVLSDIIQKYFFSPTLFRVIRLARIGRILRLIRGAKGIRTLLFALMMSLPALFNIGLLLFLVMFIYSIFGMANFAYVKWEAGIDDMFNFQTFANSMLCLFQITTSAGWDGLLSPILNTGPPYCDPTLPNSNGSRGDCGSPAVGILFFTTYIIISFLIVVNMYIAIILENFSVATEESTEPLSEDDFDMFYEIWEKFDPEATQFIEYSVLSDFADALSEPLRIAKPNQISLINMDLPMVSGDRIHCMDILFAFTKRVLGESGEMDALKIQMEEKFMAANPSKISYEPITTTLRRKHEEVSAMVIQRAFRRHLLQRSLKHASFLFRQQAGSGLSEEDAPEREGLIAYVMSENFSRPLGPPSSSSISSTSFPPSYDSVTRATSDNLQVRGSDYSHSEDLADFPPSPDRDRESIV
[1] abbreviates: clamped to −110 mV, depolarized to −10 mV, 5 min after compound, n=2.

Take `CC(C)C[C@@H]1NC(=O)[C@@H](NC(=O)[C@@H](N)CC(=O)O)CSSC[C@@H]2NC(=O)[C@@H]3CSSC[C@@H](C(=O)N[C@@H](CCCCN)C(=O)N[C@@H](Cc4ccc(O)cc4)C(=O)N[C@@H](CCCCN)C(=O)N[C@@H](CC(C)C)C(=O)N[C@@H](Cc4c[nH]c5ccccc45)C(=O)O)NC(=O)[C@H](Cc4c[nH]c5ccccc45)NC(=O)[C@H](CCCCN)NC(=O)[C@H](CC(=O)O)NC(=O)[C@H](CCCNC(=N)N)NC(=O)[C@H](CCCNC(=N)N)NC(=O)[C@H](CC(N)=O)NC(=O)[C@H](CSSC[C@H](NC(=O)CNC(=O)[C@H](CCCCN)NC(=O)[C@H](Cc4ccccc4)NC(=O)[C@H](Cc4c[nH]c5ccccc45)NC(=O)CNC1=O)C(=O)N[C@@H](CC(=O)O)C(=O)N1CCC[C@H]1C(=O)N[C@@H](CC(=O)O)C(=O)N[C@@H](CC(N)=O)C(=O)N[C@@H](CC(=O)O)C(=O)N[C@@H](CCCCN)C(=O)N3)NC(=O)[C@H](CCCCN)NC(=O)[C@H](Cc1ccc(O)cc1)NC(=O)[C@H](CC(N)=O)NC(=O)[C@H](CCC(=O)O)NC2=O` [SEQ ID NO: 474] (H-DCLGWFKGCDPDNDKCCENYKCNRRDKWCKYKLW-OH; disulfide 2-17, 9-22, 16-29): the IC50 on hNav1.3 (setting [1]) was 1.4 µM; on hNav1.4 (setting [1]), 10.5 µM; at hNav1.7 (setting [1]), 4 µM; on hNav1.5 (setting [1]), 7.9 µM.
As to `CC(C)C[C@@H]1NC(=O)[C@@H](NC(=O)[C@@H](N)CC(=O)O)CSSC[C@@H]2NC(=O)[C@@H]3CSSC[C@@H](C(=O)N[C@@H](CCCCN)C(=O)N[C@@H](Cc4ccc(O)cc4)C(=O)N[C@@H](CCCCN)C(=O)N[C@@H](CC(C)C)C(=O)N[C@@H](Cc4c[nH]c5ccccc45)C(=O)N[C@@H](CCCCN)C(=O)O)NC(=O)[C@H](Cc4c[nH]c5ccccc45)NC(=O)[C@H](CCCCN)NC(=O)[C@H](CC(=O)O)NC(=O)[C@H](CCCNC(=N)N)NC(=O)[C@H](CCCNC(=N)N)NC(=O)[C@H](CC(N)=O)NC(=O)[C@H](CSSC[C@H](NC(=O)CNC(=O)[C@H](CCCCN)NC(=O)[C@H](Cc4ccccc4)NC(=O)[C@H](Cc4c[nH]c5ccccc45)NC(=O)CNC1=O)C(=O)N[C@@H](CC(=O)O)C(=O)N1CCC[C@H]1C(=O)N[C@@H](CC(=O)O)C(=O)N[C@@H](CC(N)=O)C(=O)N[C@@H](CC(=O)O)C(=O)N[C@@H](CCCCN)C(=O)N3)NC(=O)[C@H](CCCCN)NC(=O)[C@H](Cc1ccc(O)cc1)NC(=O)CNC(=O)[C@H](CCC(=O)O)NC2=O` [compound 471] (H-DCLGWFKGCDPDNDKCCEGYKCNRRDKWCKYKLWK-OH; disulfide 2-17, 9-22, 16-29), the IC50 at hNav1.3 (use-dependent block, hNav1.3) amounted to 1.7 µM; at hNav1.4 (use-dependent block, hNav1.4), 17.4 µM; at hNav1.7 (use-dependent block, hNav1.7) it was 9.6 µM; at hNav1.5 (use-dependent block, hNav1.5), 14.6 µM. In addition, the Nav1.4/Nav1.3 on hNav1.3 (ratio of IWQ Use values, Nav1.4 over Nav1.3) worked out at 10.0. In addition, the Nav1.7/Nav1.3 at hNav1.3 (ratio of IWQ Use values, Nav1.7 over Nav1.3) was 5.5. Besides, on hNav1.7 (ratio of IWQ Use values, Nav1.4 over Nav1.7), the Nav1.4/Nav1.7 is given as 1.8.
For the compound `CC[C@@H]1NC(=O)[C@@H]2CSSC[C@@H](C(=O)N[C@@H](CCCCN)C(=O)N[C@@H](Cc3ccc(O)cc3)C(=O)N[C@H](C(=O)N[C@@H](Cc3ccccc3)C(N)=O)C(C)C)NC(=O)[C@H](Cc3c[nH]c4ccccc34)NC(=O)[C@H](CCCCN)NC(=O)[C@H](Cc3c[nH]cn3)NC(=O)[C@H]([C@@H](C)O)NC(=O)[C@H](CCCNC(=N)N)NC(=O)[C@H](CO)NC(=O)[C@H](CSSC[C@H](NC(=O)[C@H](CCCCN)NC(=O)[C@H](CCCNC(=N)N)NC(=O)[C@H](CCSC)NC(=O)[C@H](C)NC(=O)CNC(=O)[C@H](CC(C)C)NC(=O)[C@H](CC)NC(=O)[C@@H](N)CC(=O)O)C(=O)N[C@@H](CC(=O)O)C(=O)N3CCC[C@H]3C(=O)N[C@@H](CC(=O)O)C(=O)N[C@@H](CC(N)=O)C(=O)N[C@@H](CC(=O)O)C(=O)N[C@@H](CCCCN)C(=O)N2)NC(=O)[C@H](C(C)C)NC(=O)[C@H](CC(C)C)NC(=O)[C@H](CC(N)=O)NC(=O)[C@@H]2CCCN2C(=O)[C@H](CCCNC(=N)N)NC1=O` [compound 716] (H-D[Abu]LGAMRKCDPDNDKC[Abu]RPNLVCSRTHKWCKYVF-NH2; disulfide 9-23, 16-30), the IC50 on hNav1.3 (use-dependent block, hNav1.3) was greater than 5 µM; on hNav1.4 (use-dependent block, hNav1.4), greater than 50 µM; on hNav1.7 (use-dependent block, hNav1.7), 3.7 µM; on hNav1.5 (use-dependent block, hNav1.5), 49 µM.
The like results for `CCC[C@H](NC(=O)CNC(=O)[C@H](CC(C)C)NC(=O)[C@H](CC)NC(=O)[C@@H](N)CC(=O)O)C(=O)N[C@@H](CC(C)C)C(=O)N[C@@H](CCCNC(=N)N)C(=O)N[C@@H](CCCCN)C(=O)N[C@H]1CSSC[C@@H]2NC(=O)[C@H](C(C)C)NC(=O)[C@H](CC(C)C)NC(=O)[C@H](CC(N)=O)NC(=O)[C@@H]3CCCN3C(=O)[C@H](CCCNC(=N)N)NC(=O)[C@H](CC)NC(=O)[C@H](CSSC[C@@H](C(=O)N[C@@H](CCCCN)C(=O)N[C@@H](Cc3ccc(O)cc3)C(=O)N[C@H](C(=O)N[C@@H](Cc3ccccc3)C(N)=O)C(C)C)NC(=O)[C@H](Cc3c[nH]c4ccccc34)NC(=O)[C@H](CCC(=O)O)NC(=O)[C@H](Cc3c[nH]cn3)NC(=O)[C@H]([C@@H](C)O)NC(=O)[C@H](CCCNC(=N)N)NC(=O)[C@H](CO)NC2=O)NC(=O)[C@H](CCCCN)NC(=O)[C@H](CC(=O)O)NC(=O)[C@H](CC(N)=O)NC(=O)[C@H](CC(=O)O)NC(=O)[C@@H]2CCCN2C(=O)[C@H]([C@@H](C)CC)NC1=O` [compound 717] (H-D[Abu]LG[Nva]LRKCIPDNDKC[Abu]RPNLVCSRTHEWCKYVF-NH2; disulfide 9-23, 16-30) were, in that order, greater than 5 µM, greater than 50 µM, greater than 5 µM and greater than 50 µM.
On the same counts, the results for `CC[C@H](NC(=O)CNC(=O)[C@H](CC(C)C)NC(=O)[C@H](CC)NC(=O)[C@@H](N)CC(=O)O)C(=O)N[C@@H](CC(C)C)C(=O)N[C@@H](CCCNC(=N)N)C(=O)N[C@@H](CCCCN)C(=O)N[C@H]1CSSC[C@@H]2NC(=O)[C@H](C(C)C)NC(=O)[C@H](CC(C)C)NC(=O)[C@H](CC(N)=O)NC(=O)[C@@H]3CCCN3C(=O)[C@H](CCCNC(=N)N)NC(=O)[C@H](CC)NC(=O)[C@H](CSSC[C@@H](C(=O)N[C@@H](CCCCN)C(=O)N[C@@H](Cc3ccc(O)cc3)C(=O)N[C@H](C(=O)N[C@@H](Cc3ccccc3)C(N)=O)C(C)C)NC(=O)[C@H](Cc3c[nH]c4ccccc34)NC(=O)[C@H](CCC(=O)O)NC(=O)[C@H](Cc3c[nH]cn3)NC(=O)[C@H]([C@@H](C)O)NC(=O)[C@H](CCCNC(=N)N)NC(=O)[C@H](CO)NC2=O)NC(=O)[C@H](CCCCN)NC(=O)[C@H](CC(=O)O)NC(=O)[C@H](CC(N)=O)NC(=O)[C@H](CC(=O)O)NC(=O)[C@@H]2CCCN2C(=O)[C@H]([C@@H](C)CC)NC1=O` [compound 718] (H-D[Abu]LG[Abu]LRKCIPDNDKC[Abu]RPNLVCSRTHEWCKYVF-NH2; disulfide 9-23, 16-30) are greater than 5 µM, greater than 50 µM, 4.3 µM and greater than 50 µM.
Consider `CC[C@@H]1NC(=O)[C@@H]2CSSC[C@@H](C(=O)N[C@@H](CCCCN)C(=O)N[C@@H](Cc3ccc(O)cc3)C(=O)N[C@H](C(=O)N[C@@H](Cc3ccccc3)C(N)=O)C(C)C)NC(=O)[C@H](Cc3c[nH]c4ccccc34)NC(=O)[C@H](CCC(=O)O)NC(=O)[C@H](Cc3c[nH]cn3)NC(=O)[C@H]([C@@H](C)O)NC(=O)[C@H](CCCNC(=N)N)NC(=O)[C@H](CO)NC(=O)[C@H](CSSC[C@H](NC(=O)[C@H](CCCCN)NC(=O)[C@H](CCCNC(=N)N)NC(=O)[C@H](CC(C)C)NC(=O)[C@H](C)NC(=O)CNC(=O)[C@H](CC(C)C)NC(=O)[C@H](CC)NC(=O)[C@@H](N)CC(=O)O)C(=O)N[C@@H]([C@@H](C)CC)C(=O)N3CCC[C@H]3C(=O)N[C@@H](CC(=O)O)C(=O)N[C@@H](CC(N)=O)C(=O)N[C@@H](CC(=O)O)C(=O)N[C@@H](CCCCN)C(=O)N2)NC(=O)[C@H](C(C)C)NC(=O)[C@H](CC(C)C)NC(=O)[C@H](CC(N)=O)NC(=O)[C@@H]2CCCN2C(=O)[C@H](CCCNC(=N)N)NC1=O` [compound 719] (H-D[Abu]LGALRKCIPDNDKC[Abu]RPNLVCSRTHEWCKYVF-NH2; disulfide 9-23, 16-30), for which the IC50 is greater than 5 µM at hNav1.3 (use-dependent block, hNav1.3); greater than 50 µM at hNav1.4 (use-dependent block, hNav1.4); 4.3 µM on hNav1.7 (use-dependent block, hNav1.7); greater than 50 µM at hNav1.5 (use-dependent block, hNav1.5).
Consider `CC[C@@H]1NC(=O)[C@@H]2CSSC[C@@H](C(=O)N[C@@H](CCCCN)C(=O)N[C@@H](Cc3ccc(O)cc3)C(=O)N[C@H](C(=O)N[C@@H](Cc3ccccc3)C(N)=O)C(C)C)NC(=O)[C@H](Cc3c[nH]c4ccccc34)NC(=O)[C@H](CCC(=O)O)NC(=O)[C@H](Cc3c[nH]cn3)NC(=O)[C@H]([C@@H](C)O)NC(=O)[C@H](CCCNC(=N)N)NC(=O)[C@H](CO)NC(=O)[C@H](CSSC[C@H](NC(=O)[C@H](CCCCN)NC(=O)[C@H](CCCNC(=N)N)NC(=O)[C@H](CC(C)C)NC(=O)[C@@H](NC(=O)CNC(=O)[C@H](CC(C)C)NC(=O)[C@H](CC)NC(=O)[C@@H](N)CC(=O)O)C(C)C)C(=O)N[C@@H]([C@@H](C)CC)C(=O)N3CCC[C@H]3C(=O)N[C@@H](CC(=O)O)C(=O)N[C@@H](CC(N)=O)C(=O)N[C@@H](CC(=O)O)C(=O)N[C@@H](CCCCN)C(=O)N2)NC(=O)[C@H](C(C)C)NC(=O)[C@H](CC(C)C)NC(=O)[C@H](CC(N)=O)NC(=O)[C@@H]2CCCN2C(=O)[C@H](CCCNC(=N)N)NC1=O` [compound 720] (H-D[Abu]LGVLRKCIPDNDKC[Abu]RPNLVCSRTHEWCKYVF-NH2; disulfide 9-23, 16-30), for which the IC50 is greater than 5 µM at hNav1.3 (use-dependent block, hNav1.3); greater than 50 µM at hNav1.4 (use-dependent block, hNav1.4); greater than 5 µM on hNav1.7 (use-dependent block, hNav1.7); 33 µM on hNav1.5 (use-dependent block, hNav1.5).

These data come from patent publication US9340590B2 (priority 2011, dated 2016).
